# According to patent publication US8366933B2, “Method for bacterial treatment of effluents containing 2-ethylhexyl nitrate” (Commissariat a l'Energie Atomique, priority 2007, dated 2013):
# What was measured:
# Daphnia = conditions: acute toxicity; cited from earlier work
# [1] = system: C. urealyticum CIP-I-2126 strain; test: 2-EHN degradation with a non-biodegradable hydrophobic liquid phase (respirometer); type: cell-based, Corynebacterium urealyticum; conditions: per flask containing 500 mL medium at 500 mg/L 2-EHN
# Description: The capacity for degradation of 2-EHN by the C. urealyticum CIP-I-2126 strain in the presence of a non-biodegradable hydrophobic liquid phase used as a substrate reservoir is studied. The cultures were carried out at 30° C. with a respirometer so as to determine the kinetic characteristics of the biodegradation.
# Two non-biodegradable liquid phases were tested: 2,2,4,4,6,8,8-heptamethylnonane (HMN) and silicone oil (Table 3).
# zebrafish = conditions: acute toxicity; cited from earlier work
# [2] = cited from earlier work
# [3] = cited from earlier work; remark: listed apart in the source
smiles,measurement,setting,value
"CCCCC(CC)CO[N+](=O)[O-] (stereo not shown) [2-EHN, 2-ethylhexyl nitrate]",LC50 (50% lethal concentrations),Daphnia,higher than its water solubility
same,MAXIMUM DEGRADATION RATE (MMOLO2/J),[1]; liquid phase added: HMN,5.3 MMOLO2/J
same,MAXIMUM DEGRADATION RATE (MMOLO2/J),[1]; liquid phase added: Silicone oil,5.8 MMOLO2/J
same,MAXIMUM DEGRADATION RATE (MMOLO2/J),[1]; liquid phase added: none,0.3 MMOLO2/J
same,LC50 (50% lethal concentrations),zebrafish,higher than its water solubility
same,Solubility at 20° C.,[2],12.6 µg/mL
same,Vapour pressure at 20° C.,[3],27 Pa
